Test results from PMC3423587 (Bioorganic & medicinal chemistry letters, 2012).
Blank lines part the entries; values can stand above or below the compound they belong to.

Tests used:
recombinant β-secretase = recombinant β-secretase (Homo sapiens, UniProt P56817); assay: β-secretase inhibitory activity against recombinant β-secretase; conditions: for fold lower enzyme inhibitory potency: compared to 3a
[1] = system: β-secretase in neuroblastoma cells; conditions: Neuroblastoma cell
transgenic AD mice = conditions: cited from earlier work

Sequence of recombinant β-secretase (P56817 46-501): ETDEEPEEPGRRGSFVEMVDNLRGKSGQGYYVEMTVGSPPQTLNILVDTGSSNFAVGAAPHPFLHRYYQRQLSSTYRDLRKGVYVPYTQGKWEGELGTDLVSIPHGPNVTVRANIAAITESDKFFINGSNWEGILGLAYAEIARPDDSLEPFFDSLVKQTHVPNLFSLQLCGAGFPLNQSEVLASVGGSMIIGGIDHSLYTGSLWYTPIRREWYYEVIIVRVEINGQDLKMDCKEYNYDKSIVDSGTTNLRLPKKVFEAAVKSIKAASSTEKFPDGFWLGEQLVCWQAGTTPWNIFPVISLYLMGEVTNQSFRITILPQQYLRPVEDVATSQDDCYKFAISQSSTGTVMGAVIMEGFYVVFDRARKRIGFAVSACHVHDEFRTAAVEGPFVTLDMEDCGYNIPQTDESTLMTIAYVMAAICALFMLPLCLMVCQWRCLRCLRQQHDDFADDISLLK

fold lower enzyme inhibitory potency (recombinant β-secretase): ~6 fold
Structure (SMILES): CN(C(=O)CC[C@@H](c1ccccc1)N1Cc2cc(Oc3ccccc3)ccc2N=C1N)C1CCCCC1 [3b]

fold improvement of enzyme activity (recombinant β-secretase; over 4b): ~6 fold
Structure (SMILES): COCc1nc(CN(C(=O)CC[C@@H](C2CCCCC2)N2Cc3cc(Oc4ccccc4)ccc3N=C2N)C2CCCCC2)cs1 [4f]

Further lines, the compound ahead of its results:

Structure (SMILES): CN(C(=O)OC[C@@H](c1ccccc1)N1Cc2cc(Oc3ccccc3)ccc2N=C1N)C1CCCCC1 [3c]
fold loss of potency (recombinant β-secretase; compared to 3b): ~5 fold

Structure (SMILES): CN(C(=O)OC[C@@H](C1CCCCC1)N1Cc2cc(Oc3ccccc3)ccc2N=C1N)C1CCCCC1 [3d]
fold improved potency (recombinant β-secretase; over 3c): 20 fold

Structure (SMILES): CN(C(=O)CC[C@@H](C1CCCOC1)N1Cc2cc(Oc3ccccc3)ccc2N=C1N)C1CCCCC1 (stereo partly shown) [3g]
fold lower enzyme inhibitory potency (recombinant β-secretase): ~5 fold

Structure (SMILES): NC1=Nc2ccc(Oc3ccccc3)cc2CN1[C@@H](CCC(=O)N(Cc1cn[nH]c1)C1CCCCC1)C1CCCCC1 [4h]
IC50 [1]: 48 nM

Structure (SMILES): COc1cccc(CNC[C@@H](O)[C@H](Cc2ccccc2)NC(=O)c2cc(C(=O)N[C@H](C)c3ccccc3)cc(N(C)S(C)(=O)=O)c2)c1 [GRL-8234]
effect on cognitive function (transgenic AD mice): rescued the decline of cognitive function
